Data published in patent US5073565A, “Tetrazole ureas and thioureas and their use as ACAT inhibitors” (Warner-Lambert Company, priority 1990, dated 1991).

Molecular target: T1, acyl-CoA: cholesterol acyltransferase (ACAT) (Oryctolagus cuniculus, UniProt G1SFD9)
T1 construct: tissue preparation containing rabbit intestinal microsomes; from tissue; host or cells: rabbit intestinal microsomes
T1 sequence (G1SFD9 1-524): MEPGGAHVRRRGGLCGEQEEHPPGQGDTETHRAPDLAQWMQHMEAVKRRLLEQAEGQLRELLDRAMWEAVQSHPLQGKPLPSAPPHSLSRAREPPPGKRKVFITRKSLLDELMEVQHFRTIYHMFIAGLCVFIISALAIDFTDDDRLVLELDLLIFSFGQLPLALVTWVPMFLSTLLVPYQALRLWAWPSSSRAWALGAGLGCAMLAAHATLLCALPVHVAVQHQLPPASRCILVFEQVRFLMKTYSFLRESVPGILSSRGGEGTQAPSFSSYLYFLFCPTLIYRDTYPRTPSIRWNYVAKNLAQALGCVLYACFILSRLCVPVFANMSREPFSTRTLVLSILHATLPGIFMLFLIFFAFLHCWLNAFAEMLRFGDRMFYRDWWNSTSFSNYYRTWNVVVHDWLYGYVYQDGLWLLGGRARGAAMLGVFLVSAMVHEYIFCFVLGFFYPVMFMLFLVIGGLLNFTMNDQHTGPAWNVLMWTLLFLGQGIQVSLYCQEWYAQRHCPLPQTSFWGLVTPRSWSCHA
Experiment: in vitro ACAT inhibition (radiolabeled cholesterol oleate formed from radiolabeled oleic acid, rabbit intestinal microsomes)
Format: biochemical
Conditions: read-out: IC50 (concentration of test compound required to inhibit the activity of the enzyme by 50%)
Protocol: The ability of representative compounds of the present invention to inhibit ACAT was measured using an in vitro test more fully described in Field, F. J. and Salone, R. G., Biochemica et Biophysica, 712:557-570 (1982). The test assesses the ability of a test compound to inhibit the acylation of cholesterol by oleic acid by measuring the amount of radiolabeled cholesterol oleate formed from radiolabeled oleic acid in a tissue preparation containing rabbit intestinal microsomes.
The data appear in Table I where they are expressed in IC50 values; i.e., the concentration of test compound required to inhibit the activity of the enzyme by 50%.

| Compound | IC50 |
| --- | --- |
| CC(C)c1cccc(C(C)C)c1NC(=O)Nc1nnn(CCCCCCCCCCCCOC2CCCCO2)n1 (stereo not shown) [1 (c)] | 36 nM |
| CCCCCCCCCCCCCCn1nnc(NC(=O)Nc2c(C(C)C)cccc2C(C)C)n1 [Example 3, N-[2,6-bis(1-methylethyl)phenyl]-N'-(2-tetradecyl-2H-tetrazol-5-yl)urea] | 12 nM |
| CCCCCCCCCCCCCCCCn1nnc(NC(=O)Nc2c(C(C)C)cccc2C(C)C)n1 [Example 6, N-[2,6-Bis(1-methylethyl)-phenyl]-N'-(2-hexadecyl-2H-tetrazol-5-yl)urea] | 57 nM |
| CC(C)c1cccc(C(C)C)c1NC(=O)Nc1nnn(CCCCCCCCCCOC2CCCCO2)n1 (stereo not shown) [Example 7] | 12 nM |
| CCCCn1nnc(NC(=O)Nc2c(C(C)C)cccc2C(C)C)n1 [Example 11, N-[2,6-Bis(1-methylethyl)-phenyl]-N'-(2-butyl-2H-tetrazol-5-yl)urea] | 92 nM |
| CC(C)c1cccc(C(C)C)c1NC(=O)Nc1nnn(Cc2ccccc2)n1 [Example 17, N-[2,6-Bis(1-methylethyl)phenyl]-N'-(2-phenylmethyl-2H-tetrazol-5-yl)urea] | 370 nM |
| CCCCCCCCCCn1nnnc1NC(=O)Nc1c(C(C)C)cccc1C(C)C [Example 20] | 180 nM |
| CCCCCCCCCCn1nnc(NC(=O)Nc2c(C(C)C)cccc2C(C)C)n1 [Example 24, N-[2,6-Bis(1-methylethyl)phenyl]-N'-(2-decyl-2H-tetrazol-5-yl)urea] | 14 nM |

The remaining lines, values ahead:

| IC50 | Compound |
| --- | --- |
| 21 nM | CC(C)c1cccc(C(C)C)c1NC(=O)Nc1nnn(CCCCCCCCCCCCO)n1 [1 (d), N-[2,6-Bis(1-methylethyl)phenyl]-N'-[2-(12-hydroxy-dodecyl)-2H-tetrazol-5-yl] urea] |
| 9 nM | CCCCCCCCCCCCCn1nnc(NC(=O)Nc2c(C(C)C)cccc2C(C)C)n1 [Example 4, N-[2,6-Bis(1-methylethyl)phenyl]-N'-(2-tridecyl-2H-tetrazol-5-yl)urea] |
| 14 nM | CCCCCCCCCCCCn1nnc(NC(=O)Nc2c(C(C)C)cccc2C(C)C)n1 [Example 5, N-[2,6-Bis(1-methylethyl)-phenyl]-N'-(2-dodecyl-2H-tetrazol-5-yl)urea] |
| 9 nM | CCCCCCCCCCCn1nnc(NC(=O)Nc2c(C(C)C)cccc2C(C)C)n1 [Example 10, N-[2,6-Bis(1-methylethyl)-phenyl]-N'-(2-undecyl-2H-tetrazol-5-yl)urea] |
| 72 nM | CC(C)c1cccc(C(C)C)c1NC(=O)Nc1nnn(CCCCCCCCCCO)n1 [Example 15, N-[2,6-Bis(1-methylethyl)phenyl]-N'-[2-(10-hydroxy-decyl)-2H-tetrazol-5-yl]urea] |
| 300 nM | CC(C)c1cccc(C(C)C)c1NC(=O)Nc1nnnn1Cc1ccccc1 [Example 19, N-[2,6-Bis(1-methylethyl)phenyl]-N'-(1-phenylmethyl-1H-tetrazol-5-yl)urea] |
| 327 nM | CC(C)c1cccc(C(C)C)c1NC(=O)Nc1nnnn1CCc1ccccc1 [Example 21] |
| 59 nM | CCCCCCCCn1nnc(NC(=O)Nc2c(C(C)C)cccc2C(C)C)n1 [Example 22, N-[2,6-Bis(1-methylethyl)phenyl]-N'-(2-octyl-2H-tetrazol-5-yl)urea] |
| 73 nM | CCCCCCn1nnc(NC(=O)Nc2c(C(C)C)cccc2C(C)C)n1 [Example 23, N-[2,6-Bis(1-methylethyl)phenyl]-N'-(2-hexyl-2H-tetrazol-5-yl)urea] |

System: not listed separately
Experiment: in vivo screen designated APCC (total cholesterol in rats on PCC diet)
Set-up: species or system male Sprague-Dawley rats
Conditions: rat, 50 (mg/dl), N/C means no change
From the text: In one in vivo screen designated APCC, male Sprague-Dawley rats (200 to 225 g) were randomly divided into treatment groups and dosed at 4 PM with either vehicle (CMC/Tween) or suspensions of compounds in vehicle. The normal chow diet was then replaced with the PCC diet (5.5% peanut oil, 1.5% cholesterol, and 0.5% cholic acid). The rats consumed this diet a libitum during the night and were sacrificed at 8 AM to obtain blood samples for cholesterol analysis using standard procedures. Statistical differences between mean cholesterol values for the same vehicle were determined using analysis of variance followed by Fisher's least significant test. The results of this trail for representative compounds of the present invention appear in Table II wherein percent change means the difference in total cholesterol between control, and the drug-treated animals, and the (mg/dL) is the milligrams of compound per deciliter of vehicle administered. The milligrams are reflected parenthetically.

| Compound | % Change (difference in total cholesterol between control and drug-treated animals) |
| --- | --- |
| CC(C)c1cccc(C(C)C)c1NC(=O)Nc1nnn(Cc2ccccc2)n1 [Example 17, N-[2,6-Bis(1-methylethyl)phenyl]-N'-(2-phenylmethyl-2H-tetrazol-5-yl)urea] | N/C |

System: not given
Experiment: not given
Conditions: J. Medicinal Chemistry 22, 28-32 (1979); cited from earlier work

| Compound | antileukemic data |
| --- | --- |
| CCOC(=O)c1ccc(NC(=O)Nc2nnn[nH]2)cc1 [N-(4-ethoxycarbonylphenyl)-N'-tetrazol-5-yl-urea] | inactive |
